Source: article PMC10945556, “Design, Synthesis, and Antifungal Activity of 3-Substituted-2(5H)-Oxaboroles” (ACS Medicinal Chemistry Letters, 2024)
In brackets after ≈: the same amount, converted by molar mass.

Tests used:
[1] = tested on: T. mentagrophytes; test: MIC, dose-dependent solid media assay; type: cell-based, Trichophyton mentagrophytes
[2] = tested on: P. chrysogenum; test: MIC, dose-dependent solid media assay; type: cell-based, Penicillium chrysogenum
[3] = tested on: A. flavus; test: MIC, dose-dependent solid media assay; type: cell-based, Aspergillus flavus
[4] = tested on: C. albicans; test: MIC, microbroth dilution; type: cell-based, Candida albicans
[5] = tested on: S. cerevisiae; test: MIC, microbroth dilution; type: cell-based, Saccharomyces cerevisiae
[6] = tested on: B. cereus; test: MIC, microbroth dilution; type: cell-based, Bacillus cereus
[7] = tested on: Methicillin resistant Staphylococcus aureus; test: MIC, microbroth dilution; type: cell-based; conditions: S. aureus (MRSA)
[8] = tested on: P. aeruginosa; test: MIC, microbroth dilution; type: cell-based, Pseudomonas aeruginosa
[9] = tested on: E. coli; test: MIC, microbroth dilution; type: cell-based, Escherichia coli
[10] = Trichophyton mentagrophytes, value in parentheses
[11] = Penicillium chrysogenum, value in parentheses
[12] = Aspergillus flavus, value in parentheses
[13] = Candida albicans, value in parentheses
[14] = Saccharomyces cerevisiae, value in parentheses
[15] = Bacillus cereus, value in parentheses
[16] = Staphylococcus aureus, value in parentheses
[17] = Pseudomonas aeruginosa, value in parentheses
[18] = Escherichia coli, value in parentheses

Compound | MIC ([1]; Trichophyton mentagrophytes) [µg/mL] | MIC [1, 10] [µM] | MIC ([2]; Penicillium chrysogenum) [µg/mL] | MIC [2, 11] [µM] | MIC ([3]; Aspergillus flavus) [µg/mL] | MIC [3, 12] [µM] | MIC ([4]; Candida albicans) [µg/mL] | MIC [4, 13] [µM] | MIC ([5]; Saccharomyces cerevisiae) [µg/mL] | MIC [5, 14] [µM] | MIC ([6]; Bacillus cereus) [µg/mL] | MIC [6, 15] [µM] | MIC ([7]; Staphylococcus aureus) [µg/mL] | MIC [7, 16] [µM] | MIC ([8]; Pseudomonas aeruginosa) [µg/mL] | MIC [8, 17] [µM] | MIC ([9]; Escherichia coli) [µg/mL] | MIC [9, 18] [µM] | further results
C[C@@H]1[C@H](O)[C@@H](C)/C=C/C=C/CC/C=C/C=C/C=C/C=C/C(O[C@H]2O[C@H](C)[C@@H](O)[C@H](N)[C@@H]2O)CC2O[C@](O)(CC(O)C(O)CCC(O)CC(O)CC(O)CC(=O)O[C@H]1C)CC(O)C2C(=O)O (stereo partly drawn) [Nystatin, reference compound] |  |  |  |  |  |  |  |  |  |  |  |  |  |  |  |  |  |  | MIC TM [1]: 3.13 ± 0 µg/mL (≈ 3.38 µM); MIC ([1]; value in parentheses): 3.38 µM; MIC PC [2]: 1.56 ± 0 µg/mL (≈ 1.68 µM); MIC ([2]; value in parentheses): 1.68 µM; MIC AF [3]: 2.6 ± 0.5 µg/mL (≈ 2.81 µM); MIC ([3]; value in parentheses): 2.81 µM; MIC CA [4]: 0.78 ± 0 µg/mL (≈ 0.842 µM); MIC ([4]; value in parentheses): 0.84 µM; MIC SC [5]: 1.56 ± 0 µg/mL (≈ 1.68 µM); MIC ([5]; value in parentheses): 1.68 µM; MIC BC [6]: > 50 µg/mL; MIC ([6]; value in parentheses): > 54.0 µM; MIC SA [7]: > 50 µg/mL; MIC ([7]; value in parentheses): > 54.0 µM; MIC PA [8]: > 50 µg/mL; MIC ([8]; value in parentheses): > 54.0 µM; MIC EC [9]: > 50 µg/mL; MIC ([9]; value in parentheses): > 54.0 µM
OB1OCC=C1c1cccc(I)c1 [Compound 6l] | 25 | 87.4 | 6.25 | 21.9 | 25 | 87.4 | > 50 | > 175 | > 50 | > 175 | > 50 | > 175 | > 50 | > 175 | > 50 | > 175 | > 50 | > 175 | 
C[C@@H]1C[C@@H]([C@H](O)CC2CC(=O)NC(=O)C2)C(=O)[C@@H](C)C1 [Cycloheximide, reference compound] | > 50 | > 178 | 12.5 | 44.4 | > 50 | > 178 | > 50 | > 178 | 1.56 | 5.54 | > 50 | > 178 | > 50 | > 178 | > 50 | > 178 | > 50 | > 178 | 
OB1OCC=C1C1=CCCCC1 [Compound 6y] | > 50 | > 305 | > 50 | > 305 | > 50 | > 305 | > 50 | > 305 | 21 ± 4 | 128 | > 50 | > 305 | > 50 | > 305 | > 50 | > 305 | > 50 | > 305 | 
COc1ccccc1C1=CCOB1O [Compound 6p] | > 50 | > 263 | > 50 | > 263 | > 50 | > 263 | > 50 | > 263 | > 50 | > 263 | > 50 | > 263 | > 50 | > 263 | > 50 | > 263 | > 50 | > 263 | 
Cc1ccccc1C1=CCOB1O [Compound 6v] | > 50 | > 287 | > 50 | > 287 | > 50 | > 287 | > 50 | > 287 | > 50 | > 287 | > 50 | > 287 | > 50 | > 287 | > 50 | > 287 | > 50 | > 287 | 
OB1OCC=C1c1ccccc1Br [Compound 6j] | > 50 | > 210 | > 50 | > 210 | > 50 | > 210 | > 50 | > 210 | > 50 | > 210 | > 50 | > 210 | > 50 | > 210 | > 50 | > 210 | > 50 | > 210 | 
OB1OCC=C1c1ccccc1 [Compound 6a] | > 50 | > 313 | 50 | 313 | > 50 | > 313 | > 50 | > 313 | 6.25 | 39.1 | > 50 | 313 | > 50 | > 313 | > 50 | > 313 | > 50 | > 313 | 
COc1cccc(C2=CCOB2O)c1 [Compound 6o] | > 50 | > 263 | 50 | 263 | > 50 | > 263 | > 50 | > 263 | 50 | 263 | > 50 | > 263 | > 50 | > 263 | > 50 | > 263 | > 50 | > 263 | 
OB1OCc2cc(F)ccc21 [Compound 1, tavaborole, reference compound] | 0.78 | 5.14 | 1 ± 0.3 | 6.58 | 0.78 | 5.14 | 2.3 ± 0.8 | 15.1 | 0.26 ± 0.06 | 1.71 | > 50 | > 329 | ~50 | > 329 | > 50 | > 329 | 17 ± 4 | 112 | 
OB1OCC=C1c1ccccc1Cl [Compound 6g] | > 50 | > 258 | > 50 | > 258 | > 50 | > 258 | > 50 | > 258 | 50 | 258 | > 50 | > 258 | > 50 | > 258 | > 50 | > 258 | > 50 | > 258 | 
OB1OCC=C1c1ccc(OC(F)(F)F)cc1 [Compound 6m] | 50 | 205 | 12.5 | 51.2 | 50 | 205 | > 50 | > 205 | 29 ± 11 | 119 | > 50 | > 205 | > 50 | > 205 | > 50 | > 205 | > 50 | > 205 | 
OB1OCC=C1c1cccc(F)c1 [Compound 6c] | 50 | 281 | 25 | 140 | 50 | 281 | > 50 | > 281 | 10.4 ± 2 | 58.4 | > 50 | > 281 | > 50 | > 281 | > 50 | > 281 | > 50 | > 281 | 
OB1OCC=C1c1ccccc1F [Compound 6d] | > 50 | > 281 | 25 | 140 | > 50 | > 281 | > 50 | > 281 | 21 ± 4 | 118 | > 50 | > 281 | > 50 | > 281 | > 50 | > 281 | > 50 | > 281 | 
